Data published in publication PMC11039317, “Acidity of persulfides and its modulation by the protein environments in sulfide quinone oxidoreductase and thiosulfate sulfurtransferase” (The Journal of Biological Chemistry, 2024).

Tests used:
[1] = biological target: T1, Human SQOR (Homo sapiens, UniProt Q9Y6N5); conditions: potassium phosphate, pH 7.4, 4 °C; cited from earlier work
T1 construct: made in house

[2] = biological target: TST persulfide (Homo sapiens, UniProt Q16762)
Protocol: Stopped-flow kinetic studies were performed on the isolated half-reactions between TST persulfide and sulfur acceptors. Preformed stocks of TST persulfide were used to monitor its reaction with sulfite or cyanide at varying pH at 25 °C. The reactions were followed by the changes in the intrinsic fluorescence of TST, taking advantage of the higher fluorescence in the thiol versus the persulfidated state, as reported for the bovine enzyme ([37]).
TST persulfide was exposed to a pseudo-first order excess of sulfite (15 and 75 μM) or cyanide (25 and 100 μM), and the increases in the intrinsic fluorescence were recorded (Fig. 5, A and B). Single exponential functions were fitted to the time courses. The kobs values were divided by the sulfite or cyanide concentration and the second order rate constants, kpH, were determined at each pH.
The persulfidated TST was diluted in ultrapure water in one of the stopped-flow syringes (1.6–2.0 μM, ∼ 2 mM Tris) and mixed with sulfite (30 and 150 μM) or cyanide (50 and 200 μM) prepared in the other syringe in ACES/Tris/ethanolamine buffer 2× in a pH range of 5.60 to 10.38, at 25 °C. The final concentrations were halved as a consequence of the stopped-flow mixing. The increase in intrinsic fluorescence due to thiol formation was recorded during 0.025 to 10 s depending on the time course. The final pH of the reaction mixtures was measured.

[3] = biological target: T1, Human SQOR; assay type: biochemical
Protocol: The acidity of the persulfidated SQOR was evaluated by the pH-dependence of the steady-state rates. For enzymes that catalyze reactions with one substrate, the kinetic parameter kcat/Km (specificity constant) is an apparent second-order rate constant that reports on the properties of the free enzyme and the free substrate ([32]). kcat/Km can be calculated from the kinetic parameters kcat and Km obtained from typical Michaelis–Menten analysis (Equation 1). […]
SQOR uses three substrates: H2S, a sulfur acceptor (Acc^−), and CoQ (Fig. 1A). At saturating concentrations of H2S and CoQ, the kcat/Km^Acc- represents the apparent rate constant for the reaction between the sulfur acceptor and the Cys379SSH of the bis-persulfidated SQOR, and its pH-dependency reports on the pKa of both free species. Although the pH dependence of human SQOR activity has been reported ([25]), the pH dependence of kcat/Km is unavailable. The steady-state rate of SQOR was determined by monitoring the reduction of coenzyme Q1 (CoQ1) at 278 nm at varying pH at 25 °C. […]. Therefore, in the experiments with cyanide, the reactions were started with cyanide instead of SQOR so that the contribution of SQOR with H2S alone could be subtracted.
In experiments with sulfite, steady-state time courses with varying concentrations of sulfite (0.01–8 mM) were recorded, and linear functions were fitted to the first 15 to 40 s following SQOR addition (Fig. 3A). The slope before SQOR addition was subtracted to correct for the background nonenzymatic reduction of CoQ1, which was minimal. From the hyperbolic fit of the activity versus sulfite concentration plot (Fig. 3B), the kinetic parameters kcat^sulfite and Km^sulfite were obtained, and the kcat/Km^sulfite for each pH were calculated. As expected, when the kcat/Km^sulfite were plotted against pH, a bell-shaped profile was obtained (Fig. 3C), consistent with a reaction between a deprotonated species and a protonated one. An equation with two pKa was fitted to the data (Equation 3), assuming that deprotonated sulfite and protonated SQOR persulfide were the reacting species. […]. […]
The steady-state rates were obtained from linear fits to the data during the first 4 to 20 s following cyanide addition, and the slopes before cyanide addition were subtracted. The kcat/Km^cyanide at each pH was calculated according to Equation 2 using the enzyme (50 nM) and cyanide (90 μM) initial concentrations. […]
Human SQOR was expressed and purified as reported previously ([24], [25]). SQOR concentration was determined from the FAD absorbance at 450 nm, using ε = 11,500 M^−1 cm^−1 ([25]). […]
The activity of SQOR was measured at different pHs in a temperature-controlled spectrophotometer (Shimadzu UV-2600 or UV-1900i). […]

[4] = reported value; cited from earlier work
[5] = system: human 3-mercaptopyruvate sulfurtransferase; parameters: method as in earlier work; conditions: cited from earlier work
[6] = biological target: Human TST (Homo sapiens, UniProt Q16762); conditions: pH 7.03
Human TST, sequence (Q16762 whole entry): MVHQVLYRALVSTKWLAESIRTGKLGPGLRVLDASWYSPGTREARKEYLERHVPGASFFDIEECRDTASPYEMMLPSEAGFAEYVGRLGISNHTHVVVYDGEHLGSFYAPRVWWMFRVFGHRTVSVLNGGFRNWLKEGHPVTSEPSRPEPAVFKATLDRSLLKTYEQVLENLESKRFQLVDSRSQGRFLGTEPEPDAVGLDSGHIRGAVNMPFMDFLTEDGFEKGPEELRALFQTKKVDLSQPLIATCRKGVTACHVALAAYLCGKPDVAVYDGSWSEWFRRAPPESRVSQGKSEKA
Protocol: The activity of TST was measured at different pH values and 25 °C by the steady-state rate of thiocyanate formation. […] After 30 to 90 s, the reactions were stopped by removing 305 μl aliquots and mixing them with 20 μl of 38% formaldehyde (Biopack) and 25 μl of 140 mM FeCl3·6H2O (Sigma-Aldrich) diluted in 32.5% HNO3 (Dorwil). Absorbances at 460 nm (Varian Cary 60, Agilent) were recorded immediately and interpolated into a 0 to 30 μM thiocyanate calibration curve. The thiocyanate standards were prepared daily in ACES/Tris/ethanolamine buffer, pH 7.8, and underwent the same procedures as the samples ([1]).
After 220 s, 5 μl of 5 M NaOH were added, changing the pH to 8.5. The concentrations of thiocyanate produced at 252 and 310 s were measured as described.

T1 sequence (Q9Y6N5 whole entry): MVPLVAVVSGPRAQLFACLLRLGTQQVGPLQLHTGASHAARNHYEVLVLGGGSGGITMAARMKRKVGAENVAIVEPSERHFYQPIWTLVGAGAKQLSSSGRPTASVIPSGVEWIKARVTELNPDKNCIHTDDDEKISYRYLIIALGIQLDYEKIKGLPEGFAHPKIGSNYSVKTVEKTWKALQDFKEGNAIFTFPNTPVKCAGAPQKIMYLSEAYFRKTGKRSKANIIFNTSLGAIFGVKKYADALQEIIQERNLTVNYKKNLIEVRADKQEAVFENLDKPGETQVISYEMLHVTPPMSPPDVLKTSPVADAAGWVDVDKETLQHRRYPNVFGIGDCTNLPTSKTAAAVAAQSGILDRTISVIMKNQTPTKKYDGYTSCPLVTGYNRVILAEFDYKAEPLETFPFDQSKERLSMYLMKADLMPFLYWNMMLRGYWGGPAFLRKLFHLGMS
TST persulfide, sequence (Q16762 whole entry): as the sequence (Q16762 whole entry) above

Molecule: O=S(O)O [sulfite]
- second-order rate constant between the enzyme CT complex and sulfite [1]: 390000 M⁻¹ s⁻¹
- pKa of the deprotonated species (sulfite) [2]: 6.89 ± 0.09
- Km ([3]; acetic/MES/Tris buffer containing 120 mM NaCl, pH 7.17, read-out: apparent Km^sulfite): 2400 ± 200 µM
- pKa of the deprotonated species (sulfite) ([3]; fit of kcat/Km^sulfite of SQOR versus pH, 25 °C): 6.8 ± 0.5
- pKa [4]: 6.91

B1: human 3-mercaptopyruvate sulfurtransferase: sulfurtransferase enzyme, literature thiol pKa (protein, UniProt P25325 2-297, looked up)
3-mercaptopyruvate …: ASPQLCRALVSAQWVAEALRAPRAGQPLQLLDASWYLPKLGRDARREFEERHIPGAAFFDIDQCSDRTSPYDHMLPGAEHFAEYAGRLGVGAATHVVIYDASDQGLYSAPRVWWMFRAFGHHAVSLLDGGLRHWLRQNLPLSSGKSQPAPAEFRAQLDPAFIKTYEDIKENLESRRFQVVDSRATGRFRGTEPEPRDGIEPGHIPGTVNIPFTDFLSQEGLEKSPEEIRHLFQEKKVDLSKPLVATCGSGVTACHVALGAYLCGKPDVPIYDGSWVEWYMRARPEDVISEGRGKTH
- pKa of the thiol [5]: 5.2

B2: TST (protein, UniProt Q16762 2-297, looked up)
Thiosulfate sulfurtransferase: VHQVLYRALVSTKWLAESIRTGKLGPGLRVLDASWYSPGTREARKEYLERHVPGASFFDIEECRDTASPYEMMLPSEAGFAEYVGRLGISNHTHVVVYDGEHLGSFYAPRVWWMFRVFGHRTVSVLNGGFRNWLKEGHPVTSEPSRPEPAVFKATLDRSLLKTYEQVLENLESKRFQLVDSRSQGRFLGTEPEPDAVGLDSGHIRGAVNMPFMDFLTEDGFEKGPEELRALFQTKKVDLSQPLIATCRKGVTACHVALAAYLCGKPDVAVYDGSWSEWFRRAPPESRVSQGKSEKA
- apparent pKa of steady-state activity [6]: 8.47 ± 0.06
